Results: patent publication EP0580252A2, “Improvements in or relating to pectin methyl esterase” (QUEST INTERNATIONAL B.V., priority 1992, dated 1994)

What was measured:
[1] = system: papain derived PME (pectin methyl esterase); test: Inhibition test with tyrosine selective inhibitor N-acetyl-imidazole; type: biochemical, papaya; conditions: NAI 1.4mg.100 ml; 1% pectin (5% for papain also); enzyme 0.005-0.088%
Description: (§1) Bacterial and plant derived PMEs were tested for inhibition by N-acetyl-imidazole (NAI), a tyrosine selective inhibitor.
(§2) Inhibition by N-acetyl-imidazole was carried out in three different ways: by addition of the NAI to enzyme solution, to pectin solution, and to mixed enzyme and substrate. Typically we used 1% pectin (5% for papain also), enzyme concentrations of 0.005-0.088% and NAI concentrations of 1.4mg.100 ml.

[2] = system: ficin derived PME (pectin methyl esterase); test: as above; type: biochemical, fig; conditions: NAI 1.4mg.100 ml; 1% pectin; enzyme 0.005-0.088%
Description: as §1, §2

[3] = system: bromelain derived PME (pectin methyl esterase); test: as above; type: biochemical, bromelard; conditions: NAI 1.4mg.100 ml; 1% pectin; enzyme 0.005-0.088%
Description: as §1, §2

[4] = system: WGL (wheat germ lipase) derived PME (pectin methyl esterase); test: as above; type: biochemical; conditions: NAI 1.4mg.100 ml; 1% pectin; enzyme 0.005-0.088%
Description: as §1, §2

bacterial PMEs = test: as above; type: biochemical; conditions: NAI 1.4mg.100 ml; 1% pectin; enzyme 0.005-0.088%
Description: as §1, §2

orange PME = test: as above; type: biochemical; conditions: NAI 1.4mg.100 ml; 1% pectin; enzyme 0.005-0.088%
Description: as §1, §2

tomato PME = test: as above; type: biochemical; conditions: NAI 1.4mg.100 ml; 1% pectin; enzyme 0.005-0.088%
Description: as §1, §2

papain PME = test: Effect of methanol (reaction product) on PME activity; type: biochemical, papaya; conditions: methanol concentration not stated
[5] = system: PMEs (papain PME, ficin PME and other known plant PMEs); test: Inhibition of PME activity by galacturonic acid; type: biochemical; conditions: up to concentrations of 25 gl⁻¹

## CC(=O)n1ccnc1 [NAI, N-acetyl-imidazole]
[1]
  inhibition by NAI: not to be inhibited
[2]
  inhibition by NAI: not to be inhibited
[3]
  inhibition by NAI: not to be inhibited
[4]
  inhibition by NAI: not to be inhibited
Bacterial PMEs
  inhibition by NAI: inhibited
Orange PME
  inhibition by NAI: inhibited
Tomato PME
  inhibition by NAI: inhibited

## CO [methanol]
Papain PME; 1% pectin
  inhibition by methanol: inhibited
Papain PME; 5% pectin
  inhibition by methanol: hardly noticed
Papain PME
  inhibition by methanol: under certain conditions is inhibited and YES

## galacturonic acid
[5]
  inhibition by galacturonic acid: None of the PMEs is inhibited
